Where “and” joins values, the source holds several entries; their conditions need not be identical. Identical values can stand only once. Entries after “also recorded” stand apart in the source; their conditions may differ.
Experiments:
porcine RBCs = assay: Intravenous injection in piglets, P50 of blood; assay type: in vivo, piglet; conditions: iv injection of 1 g/kg body weight; maximum
Description: (§1) An in vivo-experiment was performed on one 8 week-old normal piglet (body weight: 17 kg). The piglet was anaesthesized with 5% Isoflurane, 0.7 L/min N2O and 2.0 L/min O2 for 20-30 minutes, when kf111 was injected, or blood was taken from the ear vein, respectively. The compound injected iv at a concentration of 27 g kf111/100 ml water (volume injected: 63 ml, pH 6.5, containing 17 g kf111=1 g/1 kg body weight) was not harmful to the animal, when injected into the piglet's ear vein over at least 10 minutes.
(§2) Iv injection of 1 g kf111/kg body weight caused a significant right shift of the P50-value (up to 20%) in porcine RBCs. An almost saturated kf111 solution, pH 6.7, was injected intravenously into two piglets (both of ˜18 kg body weight) (27 g kf111/100 ml=1.5 g/kg body weight) over 20 minutes.

whole blood = assay: In vitro incubation of whole blood of three species, summary statements; assay type: cell-based, human, mouse and pig
Description: (§3) As usual, pH's for the compound-solutions were adjusted to ˜7.0, osmolarities for both solutions were determined (325-373 mOsM) prior to effectors, and whole blood volumes at 1:1 ratios were incubated.

RBC [1] = assay: Blood counts of orally treated mice; assay type: in vivo, C57BL/6 mice; conditions: for RBC × 10^6/mm3: day 7, single mice, oral 27 mM for 4 days
Description: Blood from mice, having ingested kf111 or IHP in water (for 4 days) or water only was collected on day 0, 7 and 11, in order to assess any differences in the blood count (and the amount of erythropoietin in the sera) of treated and control mice. […] Erythropoietin assays in all mice sera will be reported soon.

C57BL/6 mice [2] = assay: Tolerability of intraperitoneal injection in mice; assay type: in vivo
piglets = assay: Tolerability / lethality of iv injection in piglets; assay type: in vivo, piglet
Description: as §1, §2

circulating RBC [3] = assay: P50 shift of circulating RBC after (intraperitoneal) injection in mice; conditions: for P50 Shift % 2 h, Mean +/− SD / P50 Shift % 24 h, Mean +/− SD: 5 animals; for P50 Shift % 2 h / P50 Shift % 24 h: single animals
pig whole blood = assay: In vitro P50 in whole blood after incubation with effector; assay type: cell-based; conditions: effector 60 mM
Description: as §3

human whole blood = assay: as above; assay type: cell-based; conditions: effector 60 mM
Description: as §3

mouse whole blood = assay: as above; assay type: cell-based; conditions: effector 60 mM
Description: as §3

C57BL/6 mice [4] = assay: Tolerability of oral administration; assay type: in vivo; conditions: 27 mM in drinking water, 4 days
Description: The sodium salt of the tri-pyrophosphate derivative of IHP (kf111) was dissolved in drinking (not deionized) water at a 20 g/L-concentration (=27 mM) and offered for drinking ad libitum. As in all experiments performed before, pH was adjusted to ˜7.0.
Twelve C57BL/6 mice drank kf111 over 4 days ([…]). Three control mice drank either pure water, or a solution of IHP (inositol hexaphosphate) at the same concentration and pH as kf111 (4 mice). […] Blood was collected from the tail vein of the 19 C57BL/6 mice on day 0 (before treatment started), 1, 2, 4, 6, 7, 8, 10, 11 and 12, in order to measure P50 values.

RBC [5] = assay: Blood counts of orally treated mice; assay type: in vivo, C57BL/6 mice; conditions: day 10, single mice; oral 27 mM for 4 days
circulating RBC [6] = assay: Oral administration in drinking water, P50 of circulating RBC; assay type: in vivo, C57BL/6 mice; conditions: for P50 10 d %: P50 shift on day 10, single mice
[7] = Toxicity, general statements on the biological experiments; assay type: in vivo
[8] = Blood counts and serum electrolytes of iv treated piglets; assay type: in vivo, piglet
Description: Blood from the 2 piglets, having received kf111 (1 g/kg body weight) was collected before injection, 2 hrs after, and daily over a period of 14 days after injection, in order to assess any differences in the blood counts of treated and non treated piglets. The following conclusions for piglets having received 1 g kf111 per kg body weight can be drawn: • 1. […] Increasing numbers of reticulocytes were counted in blood samples of the injected animals taken 5-14 days after injection (up to 3.0% on day 14). • 4.
Blood was taken from the heart of the dead animals for the determination of blood counts as well as the amount of sodium, potassium and calcium in the sera. All numbers of blood cells (hematocrit, white blood cells etc.) were halved. The amount of potassium and calcium was normal, while sodium was doubled (before injection: 120-140 mmol/L; after injection: 245 mmol/L). Apparently, the large amount of sodium in kf111 (6 Na^+/molecule) caused the death of the animals. It appears that up to 1 g kf111 per kg body weight can be injected iv, (if injected slowly) without harmful effects for the animals. […] The piglets were thirsty after the treatment. *a second piglets was injected with kf111 at this concentration, after 2 piglets had died after iv injection of 1.2 g kf111 (or even more) per kg body weight. • 2. Higher amounts of kf111, injected via iv, killed the animals. • 3. A 1 g kf111 per kg body weight—injection is necessary to cause a significant right shift of the P50 value (up to 20%). • 4. […] In piglets having received 1 g of kf111/kg body weight, a tendency to the decrease in hematocrit was observed. • 6. […] The number of reticulocytes decreased slightly 24 to 72 hrs after injection (from 1.5% to 0.5%). Starting with day 3 after injection of the allosteric effector, the number of reticulocytes increased by about 3% for a period of 14 days.

[9] = constant concentration 22 mM, human serum/1-octanol; cited from earlier work
human RBCs = conditions: IHP encapsulated in human RBCs by continuous-flow electroporation; cited from earlier work
[10] = dead piglets after lethal iv dose

SMILES: O=P1([O-])OP(=O)([O-])O[C@H]2[C@H](O1)[C@@H]1OP(=O)([O-])OP(=O)([O-])O[C@@H]1[C@H]1OP(=O)([O-])OP(=O)([O-])O[C@H]21.[Na+].[Na+].[Na+].[Na+].[Na+].[Na+] [kf111, Hexasodium Salt of Myo-inositol 1,6:2,3:4,5-Tripyrophosphate]
- right shift of the P50-value (porcine RBCs): up to 20%
- lysis of RBCs (whole blood; in vitro incubation with whole blood): never occurred; also recorded: no lysis of RBCs was observed
- right shift in the Hb-O2 dissociation curve, all blood samples (whole blood; whole blood of human, mouse and pig, 60 mM): up to 40%
- RBC × 10^6/mm3 (RBC [1]): 6.60 × 10^6/mm3 and 5.73 × 10^6/mm3 and 6.35 × 10^6/mm3 and 5.64 × 10^6/mm3 and 5.45 × 10^6/mm3 and 8.76 × 10^6/mm3 and 7.70 × 10^6/mm3 and 6.54 × 10^6/mm3
- number of RBC (RBC [1]; mice having ingested the compound for 4 days): reduced significantly
- number of white blood cells (RBC [1]; treated vs control groups): no major differences
- tolerability in mice (C57BL/6 mice [2]; concentration of (up to) 120 mM): well tolerated
- tolerability in mice (C57BL/6 mice [2]; ip, concentrations up to 150 mM): well tolerated
- harmfulness of iv injection (piglets; 1 g/kg body weight, injected slowly (at least 10 min)): not harmful
- outcome of iv injection of almost saturated solution (piglets; 27 g/100 ml, 1.5 g/kg planned over 20 minutes, two piglets): Both piglets died
- dose that can be injected iv without harmful effects (piglets; if injected slowly): up to 1 g kf111 per kg body weight
- dose received at which piglets died (piglets; iv, saturated solution): < 1.3 g/kg body weight
- right shift of the ODC of circulating RBC, % of the basal value (circulating RBC [3]; after ip injection): 31%
- P50 Shift % 2 h, Mean +/− SD (circulating RBC [3]; ip 45 mM): 11.8 +/− 1.16%
- P50 Shift % 2 h (circulating RBC [3]; ip 45 mM): 13% (2×) and 10% and 12% and 11%
- P50 Shift % 24 h, Mean +/− SD (circulating RBC [3]; ip 45 mM): 13.6 +/− 1.02%
- P50 Shift % 24 h (circulating RBC [3]; ip 45 mM): 14% (2×) and 12% and 13% and 15%
- P50 Shift % 2 h, Mean +/− SD (circulating RBC [3]; ip 60 mM): 16.9 +/− 3.48%
- P50 Shift % 2 h (circulating RBC [3]; ip 60 mM): 12% and 14% and 17% and 21% and 20.5%
- P50 Shift % 24 h, Mean +/− SD (circulating RBC [3]; ip 60 mM): 17.2 +/− 2.1%
- P50 Shift % 24 h (circulating RBC [3]; ip 60 mM): 14% and 16% and 17% and 20% and 19%
- P50 Shift % 2 h, Mean +/− SD (circulating RBC [3]; ip 120 mM): 26.0 +/− 2.28%
- P50 Shift % 2 h (circulating RBC [3]; ip 120 mM): 28% and 29% and 24% and 26% and 23%
- P50 Shift % 24 h, Mean +/− SD (circulating RBC [3]; ip 120 mM): 24.8 +/− 2.7%
- P50 Shift % 24 h (circulating RBC [3]; ip 120 mM): 28% (2×) and 22% (2×) and 24%
- P50 Shift % 2 h, Mean +/− SD (circulating RBC [3]; ip 150 mM): 27.0 +/− 1.78%
- P50 Shift % 2 h (circulating RBC [3]; ip 150 mM): 26% (2×) and 28% and 30% and 25%
- P50 Shift % 24 h, Mean +/− SD (circulating RBC [3]; ip 150 mM): 25.8 +/− 2.78%
- P50 Shift % 24 h (circulating RBC [3]; ip 150 mM): 25% and 26% and 31% and 24% and 23%
- P50 Increase % (pig whole blood; 1:1): 40%
- P50 mm Hg (pig whole blood; 1:1, control 32.2): 45.2 mm Hg
- P50 Increase % (human whole blood; 1:1): 39%
- P50 mm Hg (human whole blood; 1:1, control 22.1): 30.8 mm Hg
- P50 Increase % (mouse whole blood; 1:1): 29%
- P50 mm Hg (mouse whole blood; 1:1, control 36.7): 47.4 mm Hg
- harmfulness when applied orally (C57BL/6 mice [4]): not harmful
- RBC × 10^6/mm3 (RBC [5]): 9.35 × 10^6/mm3 and 8.60 × 10^6/mm3 and 8.95 × 10^6/mm3 and 8.88 × 10^6/mm3 and 8.70 × 10^6/mm3 and 8.73 × 10^6/mm3 and 7.65 × 10^6/mm3 and 7.80 × 10^6/mm3
- P50 10 d % (circulating RBC [6]; oral 27 mM for 4 days): 10% and 6% and 12% and 16% and 8% and 11% and 9%
- right shift of P50 (circulating RBC [6]; oral, 20 g/L (27 mM) in drinking water over 4 days, maximum): up to 31%
- toxicity ([7]; even in a concentration of 160 mM): no toxicity
- toxicity / tolerability ([7]; general statement): no toxicity and excellent tolerability
- number of other cells such as white blood cells ([8]; 1 g/kg iv): no major differences
- reticulocytes ([8]; 1 g/kg iv, day 14 (samples 5-14 days after injection), maximum): up to 3.0%
- reticulocytes after decrease ([8]; 1 g/kg iv, first 3 days (24 to 72 hrs) after injection): 0.5%
- hematocrit and number of RBC ([8]; 1 g/kg iv, first days after injection): slight decrease
- increase of the number of reticulocytes ([8]; 1 g/kg iv, starting with day 3, for a period of 14 days): about 3%
- amount of potassium and calcium in sera [8, 10]: normal
- numbers of blood cells (hematocrit, white blood cells etc.) [8, 10]: halved
- sodium in sera after injection ([8]; dead piglets, before injection 120-140 mmol/L): 245 mmol/L

SMILES: O=P(O)(O)O[C@H]1[C@H](OP(=O)(O)O)[C@@H](OP(=O)(O)O)[C@H](OP(=O)(O)O)[C@@H](OP(=O)(O)O)[C@H]1OP(=O)(O)O [IHP, inositol hexaphosphate, reference compound]
- RBC × 10^6/mm3 (RBC [1]): 9.6 × 10^6/mm3
- equiv of ammonium ions required to reach Kos(in serum) of 1 [9]: 8 equiv
- RBC × 10^6/mm3 (RBC [5]): 10.77 × 10^6/mm3
- P50 of IHP-modified RBCs (human RBCs): approximately 50 torr
- P50 7 d % (circulating RBC [6]; P50 shift on day 7, single mice, oral 27 mM for 4 days): 3%
- P50 10 d % (circulating RBC [6]; oral 27 mM for 4 days): 0%
- shift of the ODC (circulating RBC [6]; oral in drinking water, same concentration as kf111): absence of shift

Reference: US7919481B2, “Inositol pyrophosphates, and methods of use thereof” (NormOxys, Inc., priority 2002, dated 2011)
